These results are taken from ChEMBL document CHEMBL3991601, “The target landscape of clinical kinase drugs” (Science, 2017).

One assay concerns the target LIM domain kinase 1 (Homo sapiens, UniProt P53667).
Assay [1] has as its target Protein kinase C beta type (Homo sapiens, UniProt P05771).
The target in assay [2] is T1, Serine/threonine-protein kinase TBK1 (Homo sapiens, UniProt Q9UHD2).
T1 sequence (Q9UHD2 whole entry): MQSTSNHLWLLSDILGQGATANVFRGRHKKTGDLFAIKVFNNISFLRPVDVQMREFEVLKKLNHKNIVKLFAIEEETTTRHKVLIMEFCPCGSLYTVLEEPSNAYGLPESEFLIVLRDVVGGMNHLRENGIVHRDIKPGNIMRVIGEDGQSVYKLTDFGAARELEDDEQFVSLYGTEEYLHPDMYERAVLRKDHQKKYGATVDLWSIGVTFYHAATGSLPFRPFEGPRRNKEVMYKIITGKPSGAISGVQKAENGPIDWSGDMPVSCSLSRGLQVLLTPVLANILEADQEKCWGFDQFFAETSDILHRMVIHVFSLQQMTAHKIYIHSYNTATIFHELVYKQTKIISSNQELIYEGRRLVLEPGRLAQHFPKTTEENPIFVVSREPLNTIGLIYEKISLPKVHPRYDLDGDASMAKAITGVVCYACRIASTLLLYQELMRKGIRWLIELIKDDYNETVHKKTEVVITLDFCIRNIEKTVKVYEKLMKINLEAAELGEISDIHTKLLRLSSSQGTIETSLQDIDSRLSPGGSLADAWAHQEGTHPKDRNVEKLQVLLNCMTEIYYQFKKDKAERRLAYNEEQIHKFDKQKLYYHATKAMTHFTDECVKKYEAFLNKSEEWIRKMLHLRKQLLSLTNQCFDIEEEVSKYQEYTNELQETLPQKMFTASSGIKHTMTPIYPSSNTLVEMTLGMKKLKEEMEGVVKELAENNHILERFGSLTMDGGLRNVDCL

A further assay has as its target T2, Ephrin type-A receptor 1 (Homo sapiens, UniProt P21709).
T2 sequence (P21709 whole entry): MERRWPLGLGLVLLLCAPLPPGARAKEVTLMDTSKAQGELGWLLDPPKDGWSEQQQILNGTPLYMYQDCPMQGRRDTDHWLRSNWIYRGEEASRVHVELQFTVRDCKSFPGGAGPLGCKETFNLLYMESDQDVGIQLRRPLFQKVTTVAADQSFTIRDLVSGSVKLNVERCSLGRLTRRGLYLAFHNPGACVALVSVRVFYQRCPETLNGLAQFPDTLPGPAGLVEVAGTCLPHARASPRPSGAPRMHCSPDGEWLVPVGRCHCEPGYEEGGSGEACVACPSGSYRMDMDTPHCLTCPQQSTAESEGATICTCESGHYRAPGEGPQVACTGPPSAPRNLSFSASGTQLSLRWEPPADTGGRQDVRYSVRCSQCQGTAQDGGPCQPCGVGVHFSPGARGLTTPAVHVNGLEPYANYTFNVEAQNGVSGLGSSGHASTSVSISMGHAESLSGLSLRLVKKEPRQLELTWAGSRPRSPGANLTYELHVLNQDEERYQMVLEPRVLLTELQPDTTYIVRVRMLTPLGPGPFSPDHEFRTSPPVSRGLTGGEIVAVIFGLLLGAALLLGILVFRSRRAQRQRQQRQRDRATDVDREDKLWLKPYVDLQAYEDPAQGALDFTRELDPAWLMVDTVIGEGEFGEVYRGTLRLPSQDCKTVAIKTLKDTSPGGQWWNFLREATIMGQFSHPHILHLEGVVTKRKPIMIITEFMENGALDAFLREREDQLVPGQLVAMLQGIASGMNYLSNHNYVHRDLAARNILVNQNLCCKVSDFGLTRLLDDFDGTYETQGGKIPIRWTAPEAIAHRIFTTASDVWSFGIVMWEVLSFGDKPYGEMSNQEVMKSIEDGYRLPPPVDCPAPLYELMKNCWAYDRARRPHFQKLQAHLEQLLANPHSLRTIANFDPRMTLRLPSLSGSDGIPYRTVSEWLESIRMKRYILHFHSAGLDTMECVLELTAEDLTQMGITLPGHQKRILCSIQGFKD

In assay [3] the target is T3, Very long-chain specific acyl-CoA dehydrogenase, mitochondrial (Homo sapiens, UniProt P49748).
T3 sequence (P49748 whole entry): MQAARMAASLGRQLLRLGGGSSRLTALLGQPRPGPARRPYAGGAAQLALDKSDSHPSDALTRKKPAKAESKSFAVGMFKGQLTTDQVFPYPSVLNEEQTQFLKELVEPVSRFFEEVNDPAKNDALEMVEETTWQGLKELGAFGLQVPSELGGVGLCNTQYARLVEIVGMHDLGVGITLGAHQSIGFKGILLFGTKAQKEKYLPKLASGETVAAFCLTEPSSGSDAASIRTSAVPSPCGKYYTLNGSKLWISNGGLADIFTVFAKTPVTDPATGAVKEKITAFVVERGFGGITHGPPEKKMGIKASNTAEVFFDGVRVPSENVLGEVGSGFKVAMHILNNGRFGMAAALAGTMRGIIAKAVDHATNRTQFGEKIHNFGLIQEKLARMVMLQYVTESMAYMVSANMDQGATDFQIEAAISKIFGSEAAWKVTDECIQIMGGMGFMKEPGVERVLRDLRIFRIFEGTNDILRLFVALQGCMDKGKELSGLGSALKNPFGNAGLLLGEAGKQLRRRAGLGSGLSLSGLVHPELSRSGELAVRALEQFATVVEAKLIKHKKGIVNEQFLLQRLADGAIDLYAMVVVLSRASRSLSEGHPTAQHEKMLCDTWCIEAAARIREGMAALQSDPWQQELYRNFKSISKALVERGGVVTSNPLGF

Active and inactive are the calls of the source. Cut-off read from the data, not from the text of the source, for most assays here: actives have a measured Kd and inactives only a lower limit. Bounds are passed on as bounds.
Note: in the data inactive means no Kd found up to 30 µM.

Sequence of LIM domain kinase 1 (P53667 whole entry, the tested form may be a part): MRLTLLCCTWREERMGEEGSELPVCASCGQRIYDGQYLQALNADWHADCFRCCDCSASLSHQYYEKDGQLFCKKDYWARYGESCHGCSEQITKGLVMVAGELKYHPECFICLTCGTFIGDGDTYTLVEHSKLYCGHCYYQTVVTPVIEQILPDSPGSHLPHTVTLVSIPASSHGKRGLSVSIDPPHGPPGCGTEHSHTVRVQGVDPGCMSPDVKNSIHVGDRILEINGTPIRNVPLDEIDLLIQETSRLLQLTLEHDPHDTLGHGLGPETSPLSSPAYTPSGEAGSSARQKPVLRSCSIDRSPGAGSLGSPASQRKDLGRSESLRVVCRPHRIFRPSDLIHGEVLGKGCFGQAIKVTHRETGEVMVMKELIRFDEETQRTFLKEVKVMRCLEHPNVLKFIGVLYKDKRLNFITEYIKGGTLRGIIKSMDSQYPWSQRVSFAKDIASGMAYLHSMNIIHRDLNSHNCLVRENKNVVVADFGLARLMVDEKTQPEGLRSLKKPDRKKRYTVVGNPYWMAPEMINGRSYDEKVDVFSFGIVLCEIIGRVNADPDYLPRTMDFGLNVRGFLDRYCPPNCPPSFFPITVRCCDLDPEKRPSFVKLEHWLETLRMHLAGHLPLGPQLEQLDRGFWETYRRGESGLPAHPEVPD
Sequence of Protein kinase C beta type (P05771 whole entry): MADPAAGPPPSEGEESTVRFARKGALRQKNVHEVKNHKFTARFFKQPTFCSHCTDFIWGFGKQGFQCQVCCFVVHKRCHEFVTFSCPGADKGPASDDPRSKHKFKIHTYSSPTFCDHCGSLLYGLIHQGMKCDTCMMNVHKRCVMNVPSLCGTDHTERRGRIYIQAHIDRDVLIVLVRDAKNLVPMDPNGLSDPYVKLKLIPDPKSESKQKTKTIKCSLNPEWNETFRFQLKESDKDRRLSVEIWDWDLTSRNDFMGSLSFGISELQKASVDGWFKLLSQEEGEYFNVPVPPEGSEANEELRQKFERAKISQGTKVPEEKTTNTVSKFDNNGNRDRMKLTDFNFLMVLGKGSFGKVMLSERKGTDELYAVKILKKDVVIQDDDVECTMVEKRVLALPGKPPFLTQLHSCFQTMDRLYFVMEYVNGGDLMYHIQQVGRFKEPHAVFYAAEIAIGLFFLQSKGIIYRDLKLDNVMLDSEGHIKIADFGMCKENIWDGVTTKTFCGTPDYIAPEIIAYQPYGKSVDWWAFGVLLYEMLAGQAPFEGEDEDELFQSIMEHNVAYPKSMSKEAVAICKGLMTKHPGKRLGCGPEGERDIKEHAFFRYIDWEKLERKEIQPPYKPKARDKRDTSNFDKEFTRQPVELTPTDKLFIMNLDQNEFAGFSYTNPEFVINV

What is called Kd is the free concentration of one partner at which half of the binding sites on the other are occupied at equilibrium, for simple one-to-one binding. Take `C[C@@H](NC(=O)c1ncnc(N)c1Cl)c1ncc(C(=O)Nc2cc(C(F)(F)F)c(Cl)cn2)s1` [TOVORAFENIB]: the Kd is 1.02 µM (active) at LIM domain kinase 1; > 30 µM (inactive) in assay [1]; > 30 µM (inactive) in assay [2]; 1.07 µM at Ephrin type-A receptor 1; > 30 µM (inactive) in assay [3].

Consider `Cc1cc(Nc2ncnc3ccc(NC4=NC(C)(C)CO4)cc23)ccc1Oc1ccn2ncnc2c1` [TUCATINIB], for which the Kd (at LIM domain kinase 1; in assay [1]; in assay [2]; on Ephrin type-A receptor 1; in assay [3]) was > 30 µM (inactive) each time.

With `CC(C)c1cc(CNc2nc(Nc3cc(C4CC4)[nH]n3)cc(N3CCN(C)CC3)n2)on1` [XL-228], the dissociation constant (Kd) is 2.07 µM (active) at LIM domain kinase 1; > 30 µM (inactive) in assay [1]; 1.12 µM (active) in assay [2]; 0.005 µM (active) on Ephrin type-A receptor 1; > 30 µM (inactive) in assay [3].

`C[C@@H](N)c1ccc(C(=O)Nc2ccnc3[nH]ccc23)cc1` [Y-39983]: the Kd was > 30 µM (inactive) on LIM domain kinase 1; 6.03 µM (active) in assay [1]; > 30 µM (inactive) in assay [2]; > 30 µM (inactive) on Ephrin type-A receptor 1; > 30 µM (inactive) in assay [3].

Take `CN1C/C=C/CCOc2cccc(c2)-c2ccnc(n2)Nc2cccc(c2)C1` [ZOTIRACICLIB]: the Kd on LIM domain kinase 1 is > 30 µM (inactive); in assay [1], 4.32 µM (active); in assay [2], > 30 µM (inactive); on Ephrin type-A receptor 1 it was > 30 µM (inactive); in assay [3] it was > 30 µM (inactive).
